Laboratory results published in PubChem BioAssay AID720666 (NMMLSC, 2013).
Activity calls are given as the source filed them.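 The calls were made as follows: active = over 50% inhibition of PKC substrate or ERK kinase phosphorylation; inactive = the rest.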

Test system: TALL-104 cells, PKC substrate phosphorylation, flow cytometry
Assay: inhibitors of PKC substrate phosphorylation, late-stage follow-up, mechanism study for lytic granule exocytosis inhibitor project, TALL-104 cells, flow cytometry, CherryPick01 (AID 720666)
Conditions: at 30 µM; active compounds read high

| Structure (SMILES) | inhibition |
| --- | --- |
| CC1COCC(C)N1C1=C(Cl)C(=O)c2ccccc2C1=O (configuration not stated) | -212% (inactive) |
| COc1ccc(-c2cc(NC=O)c3ncc(-c4cccc(OC)c4)n3c2)cc1 | -43.6% (inactive) |
| COC(=O)c1c(NC(=O)c2nc3ccccc3s2)sc2c1CC(C)(C)NC2(C)C | -30.7% (inactive) |
| O=c1c2ccc(F)cc2sn1-c1ccccc1 | -40.1% (inactive) |
| CCCCC[C@@H](C)N1C[C@H](COCc2ccccc2)Oc2cc(N3CC[C@@H](N(C)C)C3)ccc2S1(=O)=O | -58.8% (inactive) |
| CC1=NOC(=O)/C1=C/c1ccc(-c2ccc(Cl)cc2)o1 | -44% (inactive) |
| CCCCC[C@@H](C)N1C[C@@H](COCc2ccccc2)Oc2cc(N3CC[C@H](N(C)C)C3)ccc2S1(=O)=O | -45.9% (inactive) |
| O=C1CC(Sc2nnnn2-c2ccccc2)C(=O)N1c1cccc(Cl)c1 (configuration not stated) | -30.8% (inactive) |
| O=c1c2ccccc2sn1-c1ccccc1 | -24.9% (inactive) |
| N#Cc1c(Nc2ccccc2Cl)s[nH]c1=O | -74.8% (inactive) |
| Cc1ccc(Nc2nc(NCc3ccco3)c3ccccc3n2)cc1 | -25.2% (inactive) |
| CCOC(=O)c1c(NC(=O)COc2ccccc2OCC)sc2c1CC(C)(C)NC2(C)C | -9.9% (inactive) |
| CN(C)CCNC(=O)c1ccc(-c2cn3c(-c4ccc(Oc5ccccc5)cc4)cnc3cn2)cc1 | 5.3% (inactive) |
| O=C(CN1C(=O)/C(=C\c2cccc(Br)c2)Oc2ccccc21)NCCCN1CCOCC1 | 6.3% (inactive) |
| O=CNc1cc(-c2ccsc2)cn2c(-c3ccccc3)cnc12 | -35.4% (inactive) |
| CC1=C(C)CS(=O)N(S(=O)(=O)c2ccc(Cl)cc2)C1 (configuration not stated) | -41.1% (inactive) |
| CC(C)(c1ccccc1)c1ccc(OCC(O)CNC2CCN(Cc3ccccc3)CC2)cc1 (configuration not stated) | -98.8% (inactive) |
| Cc1ccc(S(=O)(=O)n2ccc3c(OCCOCCNCc4ccc(F)cc4)cccc32)cc1 | -25.9% (inactive) |
| Cc1cc(N2CCN(c3nc(-c4ccc([N+](=O)[O-])cc4)cs3)CC2)c2ccccc2n1 | -81.1% (inactive) |
| COc1ccc(N2C(=O)CC(Sc3nnc(-c4ccccc4)o3)C2=O)cc1 (configuration not stated) | 1.3% (inactive) |
| COc1ccc(-n2sc3ccccc3c2=O)cc1 | 0% (inactive) |
| CCN(CC)CCCNc1ccc(-c2nnc(-c3ccc(OCC(C)C)cc3)o2)cn1 | -94.2% (inactive) |
| O=C(Cn1sc2ccccc2c1=O)NC12CC3CC(CC(C3)C1)C2 | -7.9% (inactive) |
| COc1ccc(-c2cc(NC=O)c3ncc(-c4ccccc4)n3c2)cc1OC | -38.6% (inactive) |
| O=C(Cn1sc2ccccc2c1=O)Nc1ccc(F)cc1 | -10.3% (inactive) |
| COc1ccccc1CNc1nc(NCc2ccc(C(C)C)cc2)c2sccc2n1 | -50.7% (inactive) |
| CCCCC[C@@H](C)N1C[C@@H](COCc2ccccc2)Oc2cc(N3CC[C@@H](N(C)C)C3)ccc2S1(=O)=O | -3.7% (inactive) |
